System: Mycobacteria including drug resistant strains, in particular Mycobacterium tuberculosis, M. bovis, M. avium, M. leprae and M. marinum
Format: cell-based

COc1nc2ccc(Br)cc2cc1[C@@H](c1ccccc1)[C@@](O)(CCN(C)C)c1cccc2ccccc12.O=C(O)/C=C/C(=O)O [Present fumarate salt, (alpha S, beta R)-6-bromo-alpha-[2-(dimethylamino)ethyl]-2-methoxy-alpha-1-naphthalenyl-beta-phenyl-3-quinolineethanol (2E)-2-butenedioate (1:1)]
activity against Mycobacteria: shows activity

Source: patent US8546428B2 (priority 2006, dated 2013)
